Test results as given in ChEMBL document CHEMBL2095176, “GSK Tuberculosis Screening Data”.
Values after ≈ are worked out from the molar mass of the structure shown.

Each compound was assayed on Mycobacterium tuberculosis variant bovis BCG (assay: microbe, parasite or virus in culture).
Type: functional
With `Cc1cc(C)c2cc(CN(Cc3cccnc3)C(=O)c3ccccc3)c(Cl)nc2c1` the MIC90 was 8.8 µM (≈ 3.66 µg/mL).
`CCOc1ccc(CC(=O)Nc2cc(C)nn2-c2nc(C)c(CC)c(=O)[nH]2)cc1` was tested, and the MIC90 was 3.3 µM (≈ 1.31 µg/mL).
Compound `Cc1ccc(NC(=O)C2COc3ccccc3C2)cc1Cl` (stereo unspecified) has an MIC90 of 8.5 µM (≈ 2.57 µg/mL).
`O=C(Cc1c(Cl)cccc1Cl)Nc1nc(-c2ccccn2)cs1` gave an MIC90 of 9.4 µM (≈ 3.42 µg/mL).
Compound `CCc1ccc([C@@H]2C[C@H](C(F)(F)F)n3ncc(C(=O)NCc4ccc(OC)cc4)c3N2)cc1` has an MIC90 of 2.7 µM (≈ 1.24 µg/mL).
Compound `CCCc1cc(-c2nc(-c3ccc(OC)c(OC)c3)cs2)ccn1` has an MIC90 of 6.7 µM (≈ 2.28 µg/mL).
`N#Cc1nc(-c2ccccc2F)oc1NCCc1ccccc1` showed an MIC90 of 7.9 µM (≈ 2.43 µg/mL).
For `CCc1c(C)nc(-n2nc(C)cc2NC(=O)c2ccc(OC)cc2OC)[nH]c1=O`, the MIC90 was 1.2 µM (≈ 0.477 µg/mL).
`O=C(OCc1c(F)cccc1Cl)c1ccc(-n2ncc(Cl)c(Cl)c2=O)cc1` was tested, and the MIC90 was 3.7 µM (≈ 1.58 µg/mL).
Work on `CN(Cc1nc2ccccc2s1)C(=O)c1ccc2c(c1)CC(c1ccccc1)OC2=O` (stereo unspecified) yielded an MIC90 of 4.7 µM (≈ 2.01 µg/mL).
With `Cc1cnc(N2CCN[C@@H](Cc3ccccc3)C2)nc1Oc1ccc(-n2ccnc2)cc1.O=C(O)C(F)(F)F` the MIC90 was 8.1 µM.
In the case of `Cc1nn(Cc2ccccc2)c(Cl)c1C(=O)NC1CCCCCC1`, the MIC90 is reported as 3.2 µM (≈ 1.11 µg/mL).
`O=C(/C=C/c1ccc(OC(F)(F)F)cc1)NC1CCN(c2ncccc2C(F)(F)F)CC1` was tested, and the MIC90 was 3.8 µM (≈ 1.75 µg/mL).
`Cc1c(Cl)ccc2sc(N(CCN(C)C)C(=O)c3ccc(S(C)(=O)=O)cc3)nc12` was tested, and the MIC90 was 7 µM (≈ 3.16 µg/mL).
`CSc1ccc(CC(=O)Nc2nc(-c3ccccn3)cs2)cc1` was tested, and the MIC90 was 9.1 µM (≈ 3.11 µg/mL).
For `O=C(c1cccc(-n2cnnn2)c1)N1CCCCC1c1nc2ccccc2s1` (stereo unspecified), the MIC90 was 8 µM (≈ 3.12 µg/mL).
In the case of `CCS(=O)(=O)c1cccc(C(=O)Nc2nc(-c3ccccn3)cs2)c1`, the MIC90 is reported as 5.2 µM (≈ 1.94 µg/mL).
Compound `O=C(Nc1ccccc1-c1nc(C2CCC2)cs1)OCC1CCNCC1.O=C(O)C(F)(F)F` has an MIC90 of 6.4 µM.
In the case of `CNC1=NC(=O)[C@H]([C@H](C)c2c[nH]c3ccccc23)O1` [INDOMYCIN], the MIC90 is reported as 5 µM (≈ 1.29 µg/mL).
In the case of `Cc1ccc(OCC(=O)Nc2ccc(C(=O)c3c(C)nc4sccn34)cc2)c(C)c1`, the MIC90 is reported as 3.9 µM (≈ 1.64 µg/mL).
With `Cc1cc(C)c2cc(C(=O)NC3CCCCC3)[nH]c2c1` the MIC90 was 2.8 µM (≈ 0.757 µg/mL).
In the case of `Cn1ccnc1CNCCS(=O)(=O)c1cccc(Nc2ccc(-c3cccc(F)c3)cn2)c1`, the MIC90 is reported as 4.3 µM (≈ 2 µg/mL).
`O=C(COc1ccc(F)cc1Cl)Nc1nc(-c2ccccn2)cs1` showed an MIC90 of 3.9 µM (≈ 1.42 µg/mL).
`COc1cc2ccccc2cc1C(=O)NCc1cccc(-c2ccccc2OC)c1` gave an MIC90 of 3.6 µM (≈ 1.43 µg/mL).
Compound `O=C(Nc1nnc(-c2ccc3c(c2)CCCC3)o1)c1ccc(Cl)s1` has an MIC90 of 3.8 µM (≈ 1.37 µg/mL).
In the case of `O=C(C=Cc1ccccc1)N1CCN(Cc2ccc3c(c2)OCO3)CC1`, the MIC90 is reported as 2.9 µM (≈ 1.02 µg/mL).
`NC(=O)c1nnc(Sc2ccnc(N3CCN(c4ccncc4)CC3)n2)n1-c1ccccc1` showed an MIC90 of 6.3 µM (≈ 2.9 µg/mL).
With `CCOc1ccc(C(=O)Nc2ccc3c(c2)C(C)N(C)CC3)cc1Br` (stereo unspecified) the MIC90 was 4 µM (≈ 1.61 µg/mL).
`Cc1cc2nc(C)n(CCCOc3ccccc3)c2cc1C` gave an MIC90 of 6.1 µM (≈ 1.8 µg/mL).
`Cc1onc(-c2ccccc2)c1C(=O)Nc1nc(-c2ccccn2)cs1` gave an MIC90 of 4.3 µM (≈ 1.56 µg/mL).
In the case of `CC(c1nc2ccccc2s1)N(C)C(=O)c1ccc2c(c1)CC(c1ccccc1)OC2=O` (stereo unspecified), the MIC90 is reported as 1.6 µM (≈ 0.708 µg/mL).
Compound `Fc1ccc(-c2cccc3ccc(N4CCNCC4)nc23)cc1` has an MIC90 of 8.5 µM (≈ 2.61 µg/mL).
With `C[C@H]1CN(Cc2cccc(-c3cc(CNC(=O)c4ccc(CC5CCNCC5)cc4)ccc3F)c2)CCN1` the MIC90 was 4.7 µM (≈ 2.42 µg/mL).
For `CC(C)COc1ccc(C(=O)Nc2ccc(N3CCN(C)CC3)cc2)cc1`, the MIC90 was 6.9 µM (≈ 2.54 µg/mL).
Compound `COc1cc(OC)cc(C(=O)Nc2nc(-c3ccccn3)cs2)c1` has an MIC90 of 3.4 µM (≈ 1.16 µg/mL).
For `O=C(COCC(=O)Nc1nc(-c2ccccn2)cs1)Nc1nc(-c2ccccn2)cs1`, the MIC90 was 4 µM (≈ 1.81 µg/mL).
`O=C(CSc1ccccc1)Nc1nc(-c2ccccn2)cs1` showed an MIC90 of 6.7 µM (≈ 2.19 µg/mL).
With `CCn1c(=O)c(=O)[nH]c2cc(C(=O)Nc3ccccc3Nc3ccc(OC)cc3)ccc21` the MIC90 was 0.9 µM (≈ 0.387 µg/mL).
In the case of `O=C(c1cc2c(s1)CCC2)N1CCN(Cc2ccc3c(c2)OCO3)CC1`, the MIC90 is reported as 9.2 µM (≈ 3.41 µg/mL).
Compound `CC(C)NCc1ccc(-c2ccc(NS(=O)(=O)c3ccc(F)cc3)cc2)cc1` has an MIC90 of 3.6 µM (≈ 1.43 µg/mL).
`CCOc1ccccc1NC(=O)C(Cc1ccccc1)NC(=O)c1cccs1` (stereo unspecified) gave an MIC90 of 9 µM (≈ 3.55 µg/mL).
Work on `C=CCNCCS(=O)(=O)c1cccc(Nc2ccc(-c3ccsc3)cn2)c1` yielded an MIC90 of 6 µM (≈ 2.4 µg/mL).
Work on `N#Cc1cc(C(=O)COc2ccc(CC3SC(=O)NC3=O)cc2)ccc1N` (stereo unspecified) yielded an MIC90 of 1.1 µM (≈ 0.42 µg/mL).
`CC1CCN(Cc2c(O)ccc3oc(-c4ccco4)cc(=O)c23)CC1` was tested, and the MIC90 was 2.6 µM (≈ 0.882 µg/mL).
Work on `COc1cc(C2c3c(-c4ccccc4)n[nH]c3C(=O)N2c2ccc(Cl)cc2)ccc1O` (stereo unspecified) yielded an MIC90 of 5.4 µM (≈ 2.33 µg/mL).
With `c1ccc(COc2ccc(CN3CCC4(CC3)OCCc3sccc34)cc2)nc1` the MIC90 was 6.4 µM (≈ 2.6 µg/mL).
In the case of `CCCCS(=O)(=O)Nc1ccc2cnn(C)c2c1`, the MIC90 is reported as 0.5 µM (≈ 0.134 µg/mL).
`O=C(N[C@@H](Cc1ccccc1)C(=O)Nc1ccccc1N1CCOCC1)c1cccs1` was tested, and the MIC90 was 3.2 µM (≈ 1.39 µg/mL).
`Cc1ccc(O)cc1Nc1ccnc2ccc(-c3cccc(CNCCN(C)C)c3)cc12` showed an MIC90 of 9.1 µM (≈ 3.88 µg/mL).
`O=c1oc(-c2ccccc2F)nc2scc(-c3ccccc3)c12` showed an MIC90 of 4 µM (≈ 1.29 µg/mL).
In the case of `Cc1ccc(Cl)cc1Oc1ccncc1CNc1ccccc1S(C)(=O)=O`, the MIC90 is reported as 7.1 µM (≈ 2.86 µg/mL).
`O=C(Nc1nnc(-c2ccc(Cl)s2)o1)c1ccc(Cl)s1` was tested, and the MIC90 was 7.5 µM (≈ 2.6 µg/mL).
With `CCCCOc1ccc(S(=O)(=O)NCCCn2nc(Cl)c(N3CCCNCC3)cc2=O)cc1` the MIC90 was 4.4 µM (≈ 2.19 µg/mL).
With `CCCc1ccc(S(=O)(=O)Nc2cc(CN3CCN(CCC)CC3)ccc2C)cc1` the MIC90 was 9.9 µM (≈ 4.25 µg/mL).
For `CSc1cccc(C(=O)Nc2nc(-c3ccccn3)cs2)c1`, the MIC90 was 4.6 µM (≈ 1.51 µg/mL).
`CCOc1cc(CC)c(Br)cc1C(=O)Nc1cccc2c1CCN(C)C2` gave an MIC90 of 4.6 µM (≈ 1.92 µg/mL).
